Measurements reported in US8329141B2, “Locoregional internal radionuclide ablation of abnormal tissues” (Board of Regents, The University of Texas System, priority 2004, dated 2012).

Tested on: rat mammary cancer 13762F tumor cells
Test: In vivo tumor growth after intratumoral injection of radiopharmaceuticals (rat mammary cancer model)
Set-up: species or system Fischer 344 female rats
Experimental: The radionuclides YCl3, ^111In—Cl, and ^201Tl—Cl were obtained from a local supplier of radioisotopes, Iso-Tex Diagnostics (Friendswood, Tex.). YCl3 obtained from the supplier was in an acidic preparation with a pH of 2-3, and was subsequently diluted in saline to a final pH of about 4-6 before injection. Initial activities of ^111In—Cl and YCl3 were about 200-500 mCi/ml, and dilution were made with preservative-free saline. YIMA was prepared by co-precipitation, as set forth in U.S. Ser. No. 10/724,027. Briefly, 500 μl of FeCl3 (1 mg Fe/ml) was added to 30 μl of ^90Y chloride (20-40 μCi/30 μl), and either 30 μl of NaOH (1.0 N) or 10 μl of NH4OH (20.0%) was added to the solution to reach a pH of about 7.0 to 9.0. Co-precipitated YIMA radiopharmaceutical macroaggregates were then separated from remaining soluble radionuclides by centrifuging the reactions from 1500 RPM to 3000 RPM×5 minutes, and filtered using a Millipore Nylone (size: 0.45 μm, diameter: 13 mm) to isolate the radiopharmaceutical macroaggregates.
The rat model of in vivo tumor growth was generated as follows. On day zero, 100,000 rat mammary cancer 13762F tumor cells were implanted in a volume of 0.15 ml into the right thigh muscle of Fischer 344 female rats weighing approximately 160 grams. […] YIMA was injected in a volume of 0.2 ml on days 3-7 after tumor implantation. Tumor sizes and body weights of the rats were monitored regularly (5 times a week) for several weeks, or until the tumors grew beyond 2.5 cm, at which time the rats were euthanized.

[1] = locoregional administration in rats

## [Cl][90Y]([Cl])[Cl] [YCl3, Yttrium-90 chloride]
1 mCi intratumoral on day 10 in 0.1-0.2 ml saline, FIG. 2
  tumor development: significantly suppressed
100 μCi intratumoral on day 10 in 0.1-0.2 ml saline, FIG. 2
  tumor growth: not significantly suppressed
200 μCi intratumoral on day 10 in 0.1-0.2 ml saline, FIG. 2
  tumor development: significantly suppressed
500 μCi intratumoral on day 10 in 0.1-0.2 ml saline, FIG. 2
  tumor development: significantly suppressed
FIG. 3, in 0.2-0.3 ml saline, YCl3 0.3, 0.6, 1.5 mCi, ^111In—Cl 0.6, 1.2, 2.4, 4.8 mCi, ^67Ga 0.6 mCi
  tumor growth: significantly suppressed tumor growth
FIG. 4, in 0.5 ml saline, YCl3 0.5, 1.0, 2.0 mCi, ^111In—Cl 1.0, 4.0 mCi, FDG 1.0, 2.0, 3.0 mCi, ^67Ga—Fe 1.77 mCi
  tumor growth: significantly suppressed tumor growth
At least 200 μCi intratumoral, FIG. 2
  tumor growth: clearly suppressed
[1]
  dose equivalent for humans at which mortality occurred: 350 mCi/70 Kg
  lowest dose with consistently observed local tumor suppression effects: 0.2 mCi
rats, sporadically, at high dose equivalents for humans (e.g., 350 mCi/70 Kg)
  mortality after locoregional administration: some mortality was observed
